According to BindingDB's records for patent US10377742 (Rigel Pharmaceuticals, 2019):

Molecular target: 5'-AMP-activated protein kinase catalytic subunit alpha-2 (Homo sapiens, UniProt P54646)
Assay: enzyme-linked immunosorbent assay
Method: Compounds were assayed for their ability to activate AMPK using an enzyme-linked immunosorbent assay. Reagents and procedures for measuring AMPK activation are well known and kits for AMPK activation assays are commercially available.

5'-AMP-activated protein kinase catalytic subunit alpha-2, sequence (P54646 whole entry): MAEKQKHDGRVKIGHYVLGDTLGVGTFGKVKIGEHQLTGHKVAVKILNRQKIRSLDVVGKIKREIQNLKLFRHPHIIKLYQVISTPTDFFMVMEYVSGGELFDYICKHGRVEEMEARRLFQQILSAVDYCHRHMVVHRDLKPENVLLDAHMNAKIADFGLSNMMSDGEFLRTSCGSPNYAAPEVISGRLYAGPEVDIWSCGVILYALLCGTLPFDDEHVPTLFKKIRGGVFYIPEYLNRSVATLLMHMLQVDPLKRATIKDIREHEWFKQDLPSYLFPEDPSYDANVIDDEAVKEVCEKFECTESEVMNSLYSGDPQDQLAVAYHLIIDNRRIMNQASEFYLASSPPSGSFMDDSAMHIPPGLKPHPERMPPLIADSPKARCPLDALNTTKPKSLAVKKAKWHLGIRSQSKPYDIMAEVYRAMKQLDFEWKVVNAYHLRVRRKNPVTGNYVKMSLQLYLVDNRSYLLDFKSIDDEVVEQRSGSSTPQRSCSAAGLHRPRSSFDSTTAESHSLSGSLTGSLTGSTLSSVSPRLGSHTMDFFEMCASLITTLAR

SMILES	EC50
O=C(Nc1ccccc1-c1ccccc1)c1ccc(C(=O)N2CCN(Cc3ccc(F)cc3)CC2)cn1 [US10377742, Compound 19]	> 1000 nM
O=C(Nc1ccc(-c2ccc([N+](=O)[O-])cc2)cc1)c1ccc(C(=O)N2CCN(Cc3ccc(F)cc3)CC2)cn1 [US10377742, Compound 20]	> 1000 nM
